Measured values: US20250326723A1, “Development of an Enzyme-Inhibitor Reaction Using Cellular Retinoic Acid Binding Protein II for One-Pot Megamolecule Assembly” (NORTHWESTERN UNIVERSITY, priority 2021, published 2025)

Assays:
[1] = biological target: T1, CrabTag protein domain (CRABP2) (Homo sapiens, UniProt P29373); assay: Quantification of reaction kinetics for CRABP2 (CrabTag) covalent modification, fluorescent SDS-PAGE; format: biochemical
T1 construct: made in house; host or cells: E. coli T7 SHuffle Express
T1 sequence (P29373 with tags, fused parts or gaps): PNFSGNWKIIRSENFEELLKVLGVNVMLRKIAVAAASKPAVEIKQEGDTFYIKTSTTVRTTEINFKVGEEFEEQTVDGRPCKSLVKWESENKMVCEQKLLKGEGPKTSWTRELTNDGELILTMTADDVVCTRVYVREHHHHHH
Experimental: The present disclosure provides a method for synthesizing linker 11, which includes a fluorophore to characterize the kinetics for reaction of the covalent inhibitor and CrabTag, as shown in FIG. 10A. The inventors have run parallel reactions that varies the concentration of the linker (2, 5, 10, 20, 40, 65, and 100 μM) at a constant concentration of CrabTag (1 μM) and stops the reactions using Laemmli reducing buffer at times ranging from 0 to 120 seconds, as shown in FIG. 10B. […] The inventors have separated the reaction products with SDS-PAGE and quantitated the mean fluorescence intensity of protein bands that corresponded to the adduct with ImageJ. […]
The inventors synthesized linker 11, which included a fluorophore to characterize the kinetics for reaction of the covalent inhibitor and CrabTag as shown in FIG. 10A The inventors ran parallel reactions that varied the concentration of the linker (2, 5, 10, 20, 40, 65, and 100 μM) at a constant concentration of CrabTag (1 μM) and stopped the reactions using Laemmli reducing buffer at times ranging from 0 to 120 seconds as shown in FIG. 10B. […] The inventors separated the reaction products with SDS-PAGE and quantitated the mean fluorescence intensity of protein bands that corresponded to the adduct with ImageJ. […]

[2] = biological target: T1, CrabTag protein domain (CRABP2); assay: Stability of the covalent CrabTag-linker adduct over two weeks, fluorescent SDS-PAGE; format: physicochemical
CRABP2 = biological target: T2, CRABP2 (Homo sapiens, UniProt P29373); assay: X-ray crystal structure of the CRABP2-10 covalent complex; format: binding; details: 1.8 Å structure
T2 construct: His6 (N); made in house; host or cells: E. coli T7 SHuffle Express
T2 sequence (P29373 with tags, fused parts or gaps): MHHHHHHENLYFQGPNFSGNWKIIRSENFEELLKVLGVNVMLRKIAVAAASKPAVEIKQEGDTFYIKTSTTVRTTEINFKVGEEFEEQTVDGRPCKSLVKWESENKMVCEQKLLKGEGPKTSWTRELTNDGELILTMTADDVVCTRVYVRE
Experimental: CRABP2 protein (1000 nmol, 100 μM) was reacted with inhibitor 10 (500 μM, 5 equivalents) in PBS for about 1-50 hours, about 6-20 hours, about 10-18 hours, about 12-16 hours, or about 16 hours. The protein-inhibitor adduct was then purified using SEC and the fractions containing the adduct were pooled, dialyzed, and concentrated to 12 mg/mL (1.275 mL total) using a Centrifugal Filter Unit. […]
Data Processing, Structure Determination and Model Refinement. […] Diffraction data were measured at the Life Sciences Collaborative Access beamlines at Sector 21 of the Advanced Photon Source at Argonne National Laboratory, indexed, integrated and scaled with HKL2000.^4 All subsequent work was conducted using the CCP4 suite of programs.^5 The space group and unit cell parameters were confirmed with Pointless.^6 The structure was determined by molecular replacement with PhaserMR, using a single monomer of Human Cellular Retinoic Acid Binding Protein II (CRABPII) (PDB: 6HKR) with ligands and water molecules removed as the initial phasing model. […]

CrabTag (CRABP2) = biological target: T3, CrabTag (CRABP2) (Homo sapiens, UniProt P29373); assay: Intact protein ESI-MS of CrabTag-inhibitor complexes; format: binding; details: CrabTag 1 μM, inhibitor 5 μM, 5 minutes
T3 construct: made in house; host or cells: E. coli T7 SHuffle Express
T3 sequence (P29373 2-138): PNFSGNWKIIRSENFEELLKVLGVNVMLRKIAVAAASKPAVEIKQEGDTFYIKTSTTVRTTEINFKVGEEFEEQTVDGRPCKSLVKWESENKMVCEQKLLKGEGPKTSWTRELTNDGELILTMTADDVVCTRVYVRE
Experimental: FIG. 3 illustrates ESI-MS deconvoluted spectra with expected and observed molecular weights for CrabTag with a N-terminal Histag. Top: Purified CrabTag protein with the N-terminal histag and TEV protease recognition sequence (R, Black). Bottom: Adduct from reaction of R (0.1 nmol, 1 μM) with an inhibitor of the disclosure having a structure according to Formula 10 (5 eq., 5 μM) (Red). The reaction occurred in 100 μL of 1×PBS for 5 minutes before being stopped by addition of formic acid in preparation for ESI-MS.
FIG. 4 illustrates intact protein ESI-MS for CrabTag-inhibitor complexes. Reactions of C-terminal Histag R (1 μM, 1 equivalent) with either an inhibitor of the disclosure having a structure according to Formula 10 (5 μM, 5 equivalents) or an inhibitor of the disclosure having a structure according to Formula 11 (5 μM, 5 equivalents) occurred for 5 minutes before being stopped with formic acid.
Megamolecules were prepared for LC-MS analysis and evaluation using ESI-MS. Reaction time points were taken by quenching the sample with 0.1% formic acid. The preparation involved the desalting and dilution of the multi-protein assembly to 1 μM in nuclease free water. […] Spectra data were analyzed with Agilent MassHunter Qualitative Analysis software to reveal m/z data. […]

[3] = system: fusion protein containing SnapTag and cutinase domains (CS); assay: Cross-reactivity of SnapTag and cutinase protein domains with the fluorescent CrabTag inhibitor, SDS-PAGE; format: biochemical; details: CS 10 μM, linker 1 equiv., 25° C. in PBS; CrabTag protein added next day
Description: FIG. 18A illustrates orthogonality of enzyme-inhibitor pairs in the megamolecule assembly toolbox. A Coomassie stain with brightfield view of SDS-PAGE. Lane 1: CRABP2 (R) protein domain (MW, −16 kDa). Lane 2: Reaction of CRABP2 with fluorescent linker 11. Lane 3: Cutinase-SnapTag (CS) fusion protein (MW, −45 kDa). Lane 4: CS with the CrabTag fluorescent inhibitor. Lane 5: CS with the di-cutinase PEG11 linker to yield a di-CS megamolecule (MW, −90 kDa). Lane 6: CS with the di-SnapTag PEG11 linker to yield a di-CS megamolecule (MW, −90 kDa). Lanes 7-8: CS was first mixed with the CrabTag fluorescent inhibitor for two hours. Afterwards, the di-cutinase PEG11 or the di-SnapTag PEG11 linker was added, forming the di-CS megamolecule (MW, −90 kDa). The next day, the R protein was added to form the fluorescent band shown in the fluorescent SDS-PAGE. Lanes 9-10: R was first mixed with either the di-cutinase PEG11 or the di-SnapTag PEG11 linker for two hours, followed by the addition of the CS fusion protein to form the di-CS megamolecule (MW, −90 kDa). The following day, the fluorescent CrabTag linker was added to form the fluorescent band shown in the fluorescent SDS-PAGE. […]
The orthogonality of the CrabTag enzyme-inhibitor system was examined against our existing two chemistries, cutinase and SnapTag. […] All reactions were imaged by SDS-PAGE using both fluorescence and Coomassie stain.

| Compound | effective rate constant of the inhibition reaction ([1]; CrabTag inhibition reaction) | enzyme-inhibitor complex stable (bound) ([2]; room temperature, over two weeks) [%] | residue covalently modified in crystal structure (CRABP2) | adduct stoichiometry by intact mass spectrometry (CrabTag (CRABP2)) | second order rate constant for the covalent modification reaction, keff ([1]; CrabTag 1 μM, linker 2-100 μM, times 0 to 120 seconds, ratio of ki and KI) | reactivity of the CrabTag linker after incubation with CS fusion protein [3] | protein domains retaining covalent occupancy of the linker (normalized covalent occupancy) ([2]; 1 μM in PBS, 25° C. (room temperature), after two weeks) |
| --- | --- | --- | --- | --- | --- | --- | --- |
| CC1(C)CCN(C(=O)CCC(=O)O)c2ccc(C#Cc3ccc(OS(=O)(=O)F)cc3)cc21 [inhibitor 10, 4-(6-((4-((fluorosulfonyl)oxy)phenyl)ethynyl)-4,4-dimethyl-3,4-dihydroquinolin-1(2H)-yl)-4-oxobutanoic acid] | approximately 3,600 M^−1s^−1 | > 95 | selectively modifies Tyr135 | monomeric adducts with only one modification | – | – | – |
| CC1(C)CCN(C(=O)CCC(=O)NCCOCCOCCOCCOCCOCCOCCOCCOCCOCCOCCOCCNC(=O)CCCCCNC(=O)c2ccc3c(c2)C(=O)OC32c3ccc(O)cc3Oc3cc(O)ccc32)c2ccc(C#Cc3ccc(OS(=O)(=O)F)cc3)cc21 [linker 11, Bi-EG(11)-(CrabTag Ligand, Fluorescein)] | – | – | – | monomeric adducts with only one modification | (3.6±0.5)×10^3 M^−1s^−1 | maintained selective reactivity with the CrabTag enzyme | over 95% |
